Literature values in patent US4686282A, “Immunotherapeutic polypeptide agents which block immune complex binding to immunoglobulin Fc receptors” (Immunetech, Inc., priority 1983, dated 1987).
One block for each substance: values may come before it. Ends that are not written are not given here.

Assays:
[1] = molecular target: C1 (Homo sapiens, UniProt P02745+P02746+P02747); settings: compared with intact monomeric IgG; Prystowsky et al. 1981, Lukas et al. 1981
[2] = system: local cutaneous allergic reaction (Prausnitz-Kustner); settings: Hamburger 1975
[3] = humans, injection by the subcutaneous route
[4] = molecular target: T1, IgE Fc receptor of human basophils (Homo sapiens, UniProt P12319); settings: Plummer et al. 1983
T1 construct: host or cells: human basophils
T1 sequence (P12319 26-257): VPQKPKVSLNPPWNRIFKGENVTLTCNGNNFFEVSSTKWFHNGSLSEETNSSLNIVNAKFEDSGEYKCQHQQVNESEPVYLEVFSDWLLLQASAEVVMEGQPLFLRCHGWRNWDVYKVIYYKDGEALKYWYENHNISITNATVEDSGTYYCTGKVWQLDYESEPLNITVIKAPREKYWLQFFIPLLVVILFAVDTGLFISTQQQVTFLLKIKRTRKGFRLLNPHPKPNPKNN
T1 sequence (Q01362 1-244 partner): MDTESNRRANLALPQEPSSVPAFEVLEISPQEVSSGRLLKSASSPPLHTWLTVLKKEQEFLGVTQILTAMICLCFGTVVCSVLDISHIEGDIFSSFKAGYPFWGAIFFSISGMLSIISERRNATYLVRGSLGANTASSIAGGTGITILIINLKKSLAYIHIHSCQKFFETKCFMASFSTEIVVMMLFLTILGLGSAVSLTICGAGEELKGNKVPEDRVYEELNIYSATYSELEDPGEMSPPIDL
T1 sequence (P30273 19-86 partner): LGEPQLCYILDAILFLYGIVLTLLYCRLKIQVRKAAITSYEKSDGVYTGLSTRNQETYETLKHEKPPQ

[5] = system: human and rodent mast cells; settings: Stanworth et al. 1979
[6] = system: human monocyte IgG Fc receptors
[7] = system: lymphocytes; settings: Morgan, Huguli and Weigle 1982
[8] = system: granulocytes, monocytes and macrophages; settings: in vitro; literature

Chain of C1 (P02745 23-245): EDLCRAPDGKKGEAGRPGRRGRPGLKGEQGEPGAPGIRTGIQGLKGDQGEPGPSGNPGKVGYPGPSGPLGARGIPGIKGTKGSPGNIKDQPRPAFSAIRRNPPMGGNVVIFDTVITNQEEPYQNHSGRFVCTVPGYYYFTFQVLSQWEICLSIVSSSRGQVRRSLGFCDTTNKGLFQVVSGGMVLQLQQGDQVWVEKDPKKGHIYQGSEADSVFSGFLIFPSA
Chain of C1 (P02746 28-253): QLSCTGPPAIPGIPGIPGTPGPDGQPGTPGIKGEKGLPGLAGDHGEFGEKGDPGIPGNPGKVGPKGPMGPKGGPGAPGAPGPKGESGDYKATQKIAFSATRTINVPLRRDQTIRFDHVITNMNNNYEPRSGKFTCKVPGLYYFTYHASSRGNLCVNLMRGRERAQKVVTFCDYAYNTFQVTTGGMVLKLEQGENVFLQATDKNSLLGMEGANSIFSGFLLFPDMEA
Chain of C1 (P02747 29-245): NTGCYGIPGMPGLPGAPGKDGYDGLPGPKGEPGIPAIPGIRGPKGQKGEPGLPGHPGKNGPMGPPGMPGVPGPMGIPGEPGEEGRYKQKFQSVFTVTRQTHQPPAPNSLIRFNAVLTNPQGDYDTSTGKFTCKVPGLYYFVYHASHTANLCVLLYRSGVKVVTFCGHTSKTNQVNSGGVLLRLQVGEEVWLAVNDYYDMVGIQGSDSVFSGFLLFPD
Chain of C1 (P00736 18-705 partner): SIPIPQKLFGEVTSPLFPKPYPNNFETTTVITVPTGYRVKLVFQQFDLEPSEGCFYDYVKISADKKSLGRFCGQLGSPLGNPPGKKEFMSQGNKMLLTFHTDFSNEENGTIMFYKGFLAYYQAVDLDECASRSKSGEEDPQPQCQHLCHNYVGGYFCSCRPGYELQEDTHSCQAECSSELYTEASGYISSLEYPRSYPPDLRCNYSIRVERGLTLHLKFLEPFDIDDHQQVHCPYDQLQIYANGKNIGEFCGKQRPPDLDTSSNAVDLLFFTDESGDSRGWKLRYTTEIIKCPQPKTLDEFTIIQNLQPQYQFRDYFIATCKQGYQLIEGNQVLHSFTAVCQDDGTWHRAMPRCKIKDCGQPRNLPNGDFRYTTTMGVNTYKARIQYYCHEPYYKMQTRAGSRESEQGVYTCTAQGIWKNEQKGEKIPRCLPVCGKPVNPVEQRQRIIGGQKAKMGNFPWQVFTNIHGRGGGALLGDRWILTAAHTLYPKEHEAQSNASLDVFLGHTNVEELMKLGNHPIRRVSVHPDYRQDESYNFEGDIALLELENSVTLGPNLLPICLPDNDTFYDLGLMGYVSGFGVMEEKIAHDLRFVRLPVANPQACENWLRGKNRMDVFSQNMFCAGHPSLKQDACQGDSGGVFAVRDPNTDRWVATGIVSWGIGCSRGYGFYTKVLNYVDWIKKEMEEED
Chain of C1 (P09871 16-688 partner): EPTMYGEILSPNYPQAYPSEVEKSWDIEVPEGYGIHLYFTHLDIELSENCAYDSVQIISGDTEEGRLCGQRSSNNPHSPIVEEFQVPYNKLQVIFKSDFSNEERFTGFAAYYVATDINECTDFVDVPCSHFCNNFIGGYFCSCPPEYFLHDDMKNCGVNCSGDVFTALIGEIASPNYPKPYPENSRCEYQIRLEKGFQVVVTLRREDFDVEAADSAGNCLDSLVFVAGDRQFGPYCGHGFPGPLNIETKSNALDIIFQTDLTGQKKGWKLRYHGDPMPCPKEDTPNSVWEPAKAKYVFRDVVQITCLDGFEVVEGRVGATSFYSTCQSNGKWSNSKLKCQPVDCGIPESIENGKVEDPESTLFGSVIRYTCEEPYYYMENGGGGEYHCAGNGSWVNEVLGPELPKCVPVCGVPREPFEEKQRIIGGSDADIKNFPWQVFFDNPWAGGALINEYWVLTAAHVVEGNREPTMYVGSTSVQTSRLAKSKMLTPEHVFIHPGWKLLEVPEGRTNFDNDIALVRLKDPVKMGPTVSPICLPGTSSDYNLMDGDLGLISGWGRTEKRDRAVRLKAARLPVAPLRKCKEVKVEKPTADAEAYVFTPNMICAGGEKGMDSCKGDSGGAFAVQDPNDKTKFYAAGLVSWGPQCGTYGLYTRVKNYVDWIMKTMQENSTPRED

Substance: Ac-Phe-Asn-Trp-Tyr-Val (Ac-FNWYV)
inhibitors of C1-mediated hemolysis [1]: less active

block human IgE binding to basophil IgE Fc receptors [4]: up to 70%
Substance: Asp-Ser-Asp-Pro-Arg (DSDPR; printed: Asp-Ser-Asp-Pro-Arg)
inhibit a local cutaneous allergic reaction (Prausnitz-Kustner) [2]: approximately 90%
inhibit systemic allergic disease [3]: inhibit systemic allergic disease

Substance: FNWYVDGVQVHNAKTK
inhibitors of C1-mediated hemolysis [1]: less active

Substance: GVQVHNAKTK
inhibitors of C1-mediated hemolysis [1]: approximately as active as inhibitors as intact monomeric IgG

Substance: PRKTKGSGFFVF
degranulation of human and rodent mast cells [5]: able to cause degranulation

block IgG binding to human monocyte IgG Fc receptors ([6]; Ratcliffe and Stanworth 1982): slightly block
Substance: QYDSTYR

Substance: TISKAKGQPREPQVYTLPSREEM
nonspecific activation of lymphocytes [7]: ability to nonspecifically activate lymphocytes

Substance: Thr-Lys-Pro-Arg (TKPR; printed: Thr-Lys-Pro-Arg) [Tuftsin]
phagocytosis stimulating ability [8]: active at nanomolar concentrations
inhibits human IgG binding to human monocyte IgG Fc receptors ([6]; Ratcliffe and Stanworth 1982 and ourselves): competitively inhibits
inhibitors of C1-mediated hemolysis [1]: less active

Substance: Val-Gln-Val-His-Asn-Ala-Lys-Thr-Lys-Pro-Arg-OH (VQVHNAKTKPR-OH)
inhibitors of C1-mediated hemolysis [1]: approximately as active as inhibitors as intact monomeric IgG
